In patent US8212036B2, “Maleate salts of 6-(5-chloro-2-pyridyl)-5-[(4-methyl-1-piperazinyl)carbonyloxy]-7-oxo-6,7-dihydro-5H-pyrrolo[3,4-b]pyrazine” (Sunovion Pharmaceuticals Inc., priority 2007, dated 2012):

Key:
Assay type in all cases: physicochemical
[1] = Tablet dissolution over time at various pH; conditions: for Dependence of dissolution on pH: oral dosage form, media pH 1 to 6.8 and deionized water
Experimental: Dissolution over time of eszopiclone free base at various pHs (FIG. 1) was compared to that of eszopiclone maleate salt (FIG. 2) in dissolution media at various pH values using Hanson Research SR8-Plus Dissolution Apparatus and C-Technologies Fiber Optic UV Probes at 305 nm (excipients subtracted at 410 nm). The dissolution media used were (a) pH 1 (0.1N HCl) 50 ml of conc HCl mixed in 6 L of water; (b) pH 4.5 acetate buffer (20 mM) 5.88 g of sodium acetate trihydrate dissolved in 6 L of water, pH adjusted to 4.5 with acetic acid; (c) pH 5.5 phosphate buffer (20 mM) 16.3 g of potassium dihydrogen phosphate in 6 L of water. pH adjusted to 5.5 with NaOH; (d) pH 6.8 phosphate buffer (20 mM) 16.3 g of potassium dihydrogen phosphate in 6 L of water. pH adjusted 6.8 with NaOH. A standard dissolution protocol was used. The standard solution (0.006 mg/mL of eszopiclone free base) was prepared by weighing a known amount (˜20 mg) of the free base into a 100 mL volumetric flask. 10 mL of acetonitrile was added into the flask and sonicated until the solids dissolved completely. The solution was cooled to room temperature and made up to the 100 mL mark using media and mixed well. Dilute 3 mL to 100 mL using media. The tables were prepared by transferring 500 mL dissolution media into the 6 vessels. Blank readings were taken for all the probes using media. Standards were read for individual vessels. Probes were washed with media and then inserted back into each vessel. One tablet was transferred into each vessel. The dissolution program was started immediately and readings were taken at 305 nm for 60 min (every 1 min for 20 min and then every 10 min).
FIG. 1 depicts dissolution profiles of the eszopiclone free base at pH 1 (0.1N HCl), pH 4.5 in buffer, pH 5.5 in buffer, pH 6.8 in buffer and in deionized water. […] FIG. 2 depicts dissolution profiles of the eszopiclone maleate salt at pH 1 (0.1N HCl), pH 4.5 in buffer, pH 5.5 in buffer, pH 6.8 in buffer and in deionized water. It can be seen that the dissolution is greater than 50% within five minutes and greater than 80% at one hour at all pH.

[2] = Intrinsic dissolution, USP 28 method <1087>; conditions: isotonic 50 mM acetate (pH 4.5) buffer at 37° C., 50 rpm
Experimental: The intrinsic dissolution (Table 3) was determined using USP 28 method <1087> (United States Pharmacopeia, The National Formulary, USP 28, 28th edition, Rockville, […]., 2005). Preparation of each test sample was performed as per USP 28 method <1087> by weighing and transferring the material to the die cavity and compressing for 1 minute at the minimum compression pressure necessary to form a nondisintegrating compacted pellet. The dissolution media used was isotonic 50 mM acetate buffer (pH 4.5) at 37° C. and speed was set at 50 rpm. Each run was halted at 5 min, irrespective of the percent dissolved. Each salt was run in duplicate.

[3] = Aqueous solubility (24 hour equilibrated suspension in water, HPLC); conditions: for pH measured at saturation: saturated suspension in water
Experimental: The aliquot was diluted and analyzed by HPLC (Waters). The data was compared to a standard curve generated from a set of solutions of known concentrations. The standard curve and the samples were analyzed using a HPLC using the following conditions: […]

[4] = all pH (pH 1, 4.5, 5.5, 6.8, deionized water)

| SMILES | Part of tablet dissolved at one hour ([1]; deionized water) | Dependence of dissolution on pH [1] | Dissolution of tablet ([1]; pH 1 (0.1N HCl)) | Part of tablet dissolved at one hour ([1]; pH 6.8 buffer) | Intrinsic dissolution Average [2] | Intrinsic dissolution Run 1 [2] | Intrinsic dissolution Run 2 [2] | pH measured at saturation [3] | Solubility ([3]; water, 24 hour at ambient) | Dissolution at one hour [1, 4] | Dissolution within five minutes [1, 4] | solubility thermodynamic at 24 h ([3]; water, 24 hour at ambient) |
| --- | --- | --- | --- | --- | --- | --- | --- | --- | --- | --- | --- | --- |
| CN1CCN(C(=O)O[C@H]2c3nccnc3C(=O)N2c2ccc(Cl)cn2)CC1 [Free base, [(9S)-8-(5-chloropyridin-2-yl)-7-oxo-2,5,8-triazabicyclo[4.3.0]nona-1,3,5-trien-9-yl]4-methyl piperazine-1-carboxylate] | less than one half | decreases markedly as the pH rises | rapid and complete | less than one half | 0.5 mgA/cm^2/min | 0.6 mgA/cm^2/min | 0.5 mgA/cm^2/min | 7.6 | 0.2^1 mgA/mL | – | – | – |
| CN1CCN(C(=O)O[C@H]2c3nccnc3C(=O)N2c2ccc(Cl)cn2)CC1.O=C(O)/C=C\C(=O)O [Maleate, (S)-Zopiclone Maleate] | – | dissolve quickly and at substantially the same rate, regardless of the pH | – | – | 1.3 mgA/cm^2/min | 1.4 mgA/cm^2/min | 1.2 mgA/cm^2/min | 4.4 | – | greater than 80% | greater than 50% | 9000 µg/mL |
